Six molecules from patent publication US20250092052A1, “HETEROARYL DERIVATIVE COMPOUNDS, AND USES THEREOF” (VORONOI INC., priority 2023, published 2025) can be followed below.

Each structure is given as a SMILES string.

The target in one test is Myt1-KD (Homo sapiens (Human), UniProt Q99640). The test is described as follows: Thermal Shift Assay, compound binding to Myt1-KD. Particulars: 2 μM protein, 100 μM compound, Tm of compound minus Tm of DMSO. The method, then:
The degree of compound binding to Myt1-KD was tested using a Thermal Shift Assay. Each protein was diluted to a concentration of 2 μM in 50 mM Tris (pH 7.5) with 100 μM of the compound. SYPRO™ Orange dye was added to the solution, and the plate was transferred to a QuantStudio3 Real-Time PCR System (Applied Biosystems by Thermo Fisher Scientific). […] The degree of protein melting in the presence of the compound compared to DMSO was calculated according to the following Equation 1. ΔTm=Tm (Temperature of Example compound)−Tm (Temperature of DMSO) [Equation 1]

A further test addresses human PKMYT1 enzyme (Homo sapiens (Human), UniProt Q99640). The test can be described thus: Inhibitory activity against PKMYT1 kinase (ADP-Glo kinase assay). The format is biochemical. Particulars: purified human PKMYT1, ATP, CDK1 substrate, 25° C., 1 hour. The method, then: To evaluate the inhibitory activity of the compounds synthesized according to the above Examples against PKMYT1 kinase, the Example compounds were reacted with purified human PKMYT1 enzyme and assessed using the following method.
The reaction buffer was used as a composition of 200 mM Tris-HCl pH 7.4, 100 mM MgCl2, 0.5 mg/mL BSA, 0.25 mM DTT, and the reactions of all the tests were carried out on the reaction buffer.
The compound was diluted in 12 steps using a serial dilution method from a 10 mM DMSO stock, and the enzyme activity was measured at a final compound concentration of 10˜0.00005645 μM. During the test, the enzyme activity was confirmed using in vitro ADP-Glo™kinase assay (Promega) after reacting with the proper concentration of PKMYT1 enzyme, purified ATP, and enzyme substrate (CDK1) at 25° C. for 1 hour. At a ratio of 2:2:1, an enzyme-active reaction solution, an ADP-Glo reaction solution, and an enzyme-active detection solution were reacted to measure the inhibition of the enzyme's activity with luminescence. Based on the […] of the enzyme activity of the solvent control that was not treated with the compound, the degree of enzyme activity inhibition was calculated according to the treatment concentration of each compound, and the concentration of each compound that inhibits 50% of enzyme activity was determined as IC50 (nM) value and the value was obtained by using GraphPad Prism 8.3.0 (GraphPad software Inc., San Diego) software.
(In general: ADP-Glo first removes unused ATP, then detects ADP through luciferase.)

Chain of Myt1-KD (Q99640 110-359): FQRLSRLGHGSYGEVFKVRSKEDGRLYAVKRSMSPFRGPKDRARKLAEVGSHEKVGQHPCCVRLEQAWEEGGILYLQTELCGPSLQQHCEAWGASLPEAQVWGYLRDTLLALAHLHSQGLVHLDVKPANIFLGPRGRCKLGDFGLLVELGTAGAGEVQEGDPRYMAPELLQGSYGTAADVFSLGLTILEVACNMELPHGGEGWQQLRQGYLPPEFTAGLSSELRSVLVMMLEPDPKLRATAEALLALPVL
Chain of human PKMYT1 enzyme (Q99640 whole entry): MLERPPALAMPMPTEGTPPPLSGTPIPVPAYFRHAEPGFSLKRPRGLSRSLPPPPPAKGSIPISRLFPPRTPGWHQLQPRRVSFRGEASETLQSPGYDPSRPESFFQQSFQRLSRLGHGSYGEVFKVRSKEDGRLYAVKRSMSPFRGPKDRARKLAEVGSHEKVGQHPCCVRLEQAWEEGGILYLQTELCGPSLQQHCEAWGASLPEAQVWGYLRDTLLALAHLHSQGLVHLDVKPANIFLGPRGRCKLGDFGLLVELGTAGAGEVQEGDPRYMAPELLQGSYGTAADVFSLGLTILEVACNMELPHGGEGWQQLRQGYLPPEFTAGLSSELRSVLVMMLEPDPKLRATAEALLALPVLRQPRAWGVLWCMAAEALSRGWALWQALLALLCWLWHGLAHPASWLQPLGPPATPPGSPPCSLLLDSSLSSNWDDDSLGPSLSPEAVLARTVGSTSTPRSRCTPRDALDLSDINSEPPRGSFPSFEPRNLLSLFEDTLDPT

One may read the IC50 as the point on the concentration scale where inhibition reaches its midpoint. The low end stands for higher potency, the high end for lower potency. Consider `Cc1ccc(O)c(C)c1-n1c(N)c(C(=O)c2cc3cc(N4CCN(C)CC4)ccc3[nH]2)c2nccnc21` (atropisomer, axis not shown) [Example 22, (R)-(6-amino-5-(3-hydroxy-2,6-dimethylphenyl)-5H-pyrrolo[2,3-b]pyrazin-7-yl)(5-(4-methylpiperazin-1-yl)-1H-indol-2-yl)methanone], for which the “ΔTm (° C.)” value on Myt1-KD is on record as “A (ΔTm (° C.) ≥ 5° C.)”. For the same molecule, on human PKMYT1 enzyme, the 50% inhibitory concentration (IC50) was not above 200 nM.
For `Cc1ccc(O)c(C)c1-n1c(N)c(C(=O)c2cc3ccncc3[nH]2)c2nccnc21` (atropisomer, axis not shown) [Example 25, (R)-(6-amino-5-(3-hydroxy-2,6-dimethylphenyl)-5H-pyrrolo[2,3-b]pyrazin-7-yl)(1H-pyrrolo[2,3-c]pyridin-2-yl)methanone] the same measures were “A (ΔTm (° C.) ≥ 5° C.)” and not above 200 nM.
In general, ΔTm refers to the change in melting temperature against a reference sample. `Cc1ccc(O)c(C)c1-n1c(N)c(C(=O)c2cc3ccccc3[nH]2)c2nccnc21` (single isomer, unassigned) [Example 1]: the thermal shift (ΔTm) at 100 µM at Myt1-KD was not below 5 °C. Also, the half-inhibitory concentration (IC50) against human PKMYT1 enzyme is not above 200 nM.
Regarding `Cc1ccc(O)c(C)c1-n1c(N)c(C(=O)c2nc3ccccc3[nH]2)c2cccnc21` [Example 3, (S)-(2-amino-1-(3-hydroxy-2,6-dimethylphenyl)-1H-pyrrolo[2,3-b]pyridin-3-yl)(1H-benzo[d]imidazol-2-yl)methanone], the “ΔTm (° C.)” value on Myt1-KD was “A (ΔTm (° C.) ≥ 5° C.)”. The same molecule came in with an IC50 on human PKMYT1 enzyme not above 200 nM.
The like results for `Cc1ccc(O)c(C)c1-n1c(N)c(C(=O)c2cc3sccc3[nH]2)c2nc(C)c(C)nc21` [Example 13, (S)-(6-amino-5-(3-hydroxy-2,6-dimethylphenyl)-2,3-dimethyl-5H-pyrrolo[2,3-b]pyrazin-7-yl)(4H-thieno[3,2-b]pyrrol-5-yl)methanone] were, in that order, “A (ΔTm (° C.) ≥ 5° C.)” and not above 200 nM.
Turning to `Cc1ccc(O)c(C)c1-n1c(N)c(C(=O)c2ccc[nH]2)c2nccnc21` [Example 23, (6-amino-5-(3-hydroxy-2,6-dimethylphenyl)-5H-pyrrolo[2,3-b]pyrazin-7-yl)(1H-pyrrol-2-yl)methanone], the ΔTm at 100 µM at Myt1-KD was not above 5 °C. On human PKMYT1 enzyme, this molecule registered a half-maximal inhibitory concentration (IC50) not above 200 nM.
